Measurements published in US20080090805A1, “CB-1 MODULATING COMPOUNDS AND THEIR USE” (ACADIA PHARMACEUTICALS INC., priority 2005, published 2008).
Like-named read-outs stand apart in the source and are kept apart here.

Target: CB1 (mutant) (Homo sapiens, UniProt P21554)
Assay: R-SAT functional receptor assay, CB1 (mutant, truncated after amino acid 417)
Type: cell-based
Conditions: R-SAT CB1
[1] = Appendix A, receptor form (mutant or wild-type) not stated, read-out: pIC50 (converted)
[2] = Appendix A, receptor form not stated, relative to SR141716 (100%), read-out: % Inhibition
[3] = pIC50, Appendix A, receptor form (mutant or wild-type) not stated

Sequence of CB1 (mutant) (P21554 1-417, change not shown): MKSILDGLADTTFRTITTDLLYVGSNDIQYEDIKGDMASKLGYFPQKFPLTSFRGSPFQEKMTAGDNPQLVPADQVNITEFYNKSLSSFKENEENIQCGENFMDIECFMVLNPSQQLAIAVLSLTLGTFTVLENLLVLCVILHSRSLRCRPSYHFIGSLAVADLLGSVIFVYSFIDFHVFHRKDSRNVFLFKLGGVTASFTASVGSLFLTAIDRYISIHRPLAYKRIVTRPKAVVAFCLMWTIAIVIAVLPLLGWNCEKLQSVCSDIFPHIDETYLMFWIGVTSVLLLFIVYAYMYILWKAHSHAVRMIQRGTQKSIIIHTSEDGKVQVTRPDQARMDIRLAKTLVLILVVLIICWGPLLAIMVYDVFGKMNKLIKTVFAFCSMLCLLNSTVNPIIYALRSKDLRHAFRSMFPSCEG

Row | SMILES | IC50 [1] | Emax [2] | further results
1 | C[C@@H]1CCC[C@H](C)N1NC(=O)c1ccc2c(c1)N=C(c1ccc(Cl)c(Cl)c1)c1ccccc1S2 [drawing 739] |  | 114% | IC50 [3]: 7.94 nM
2 | CC(C)CNC(=O)c1ccc2c(c1)N=C(c1ccc(Cl)cc1)c1ccccc1S2 [drawing 741] |  | 123% | IC50 [3]: 7.94 nM
3 | O=C(NCCc1ccccc1)c1ccc2c(c1)N=C(c1ccc(Cl)cc1)c1ccccc1S2 [drawing 743] | 7.94 nM | 110% | 
4 | O=C(NN1CCCCC1)c1ccc2c(c1)N=C(C1CCCCC1)c1ccccc1S2 [drawing 744] |  |  | Emax (read-out: % Inhibition, Appendix A, receptor form not stated, relative to SR141716 (100%)): 86%
5 | NS(=O)(=O)c1ccc(CNC(=O)c2ccc3c(c2)N=C(c2ccc(Cl)cc2)c2ccccc2S3)cc1 [drawing 746] | 79.4 nM | 76% | 
6 | O=C(NCc1cccc(Cl)c1)c1ccc2c(c1)N=C(c1ccc(F)cc1)c1ccccc1S2 [drawing 747] |  |  | pIC50 (Appendix A, receptor form (mutant or wild-type) not stated): 8.1; % Inhibition (Appendix A, receptor form not stated, relative to SR141716 (100%)): 106%
7 | CC(NC(=O)c1ccc2c(c1)N=C(c1ccccc1F)c1ccccc1S2)c1ccccc1 (stereo not drawn) [drawing 748] | 79.4 nM | 69% | 
8 | O=C(NCc1cccs1)c1ccc2c(c1)N=C(c1ccc(Cl)cc1)c1ccccc1S2 [drawing 751] | 7.94 nM | 107% | 
9 | CN1c2ccc(C(=O)NCc3ccc(F)cc3)cc2N=C(c2ccc(F)cc2)c2ccccc21 [drawing 752] | 79.4 nM | 91% | 
10 | O=C(NCc1ccco1)c1ccc2c(c1)N=C(c1ccc(Cl)cc1)c1ccccc1S2 [drawing 753] | 7.94 nM | 94% | 
11 | Cc1ccsc1C1=Nc2cc(C(=O)NCC(C)C)ccc2Sc2ccccc21 [drawing 757] | 10 nM | 88% | 
12 | O=C(NCc1cccc(Cl)c1)c1ccc2c(c1)N=C(N1CCCCC1)c1ccccc1[S+]2[O-] (stereo not drawn) [drawing 758] | 100 nM | 71% | 
13 | CCCC1=Nc2cc(C(=O)NCCCc3ccccc3)ccc2Sc2ccccc21 [drawing 763] | 10 nM | 104% | 
14 | O=C(NNC(=O)c1ccc2c(c1)N=C(c1ccc(F)cc1)c1ccccc1S2)c1ccccc1 [drawing 764] | 100 nM | 83% | 
15 | Cc1ccc(CNC(=O)c2ccc3c(c2)N=C(c2ccc(Cl)s2)c2ccccc2S3)o1 [drawing 765] | 10 nM | 92% | 
16 | CCCCNC(=O)c1ccc2c(c1)N=C(c1ccc(Cl)cc1)c1ccc(Cl)cc1S2 [drawing 766] |  | 90% | IC50 [3]: 100 nM
17 | CC(C)CCNC(=O)c1ccc2c(c1)N=C(c1ccc(F)cc1)c1ccccc1S2 [drawing 771] |  | 107% | IC50 [3]: 10 nM
18 | Cc1ccsc1C1=Nc2cc(C(=O)NN3[C@H](C)CCC[C@@H]3C)ccc2Sc2ccccc21 [drawing 772] |  | 89% | IC50 [3]: 100 nM

Row | SMILES | IC50 [1] | Emax [2] | further results
19 | CCN(CCNC(=O)c1ccc2c(c1)N=C(c1ccc(F)cc1)c1ccccc1S2)c1ccccc1 [drawing 773] | 10 nM | 99% | 
20 | O=C(NCCc1ccc(Cl)cc1)c1ccc2c(c1)N=C(N1CCCCC1)c1ccccc1S2 [drawing 775] | 10 nM | 113% | 
21 | CCN(CCNC(=O)c1ccc2c(c1)N=C(c1ccccc1)c1ccccc1S2)c1ccccc1 [drawing 777] | 10 nM | 106% | 
22 | CC(C)CNC(=O)c1ccc2c(c1)N=C(c1ccc(Br)cc1)c1ccccc1S2 [drawing 781] |  | 80% | IC50 [3]: 10 nM
23 | CCCCNC(=O)c1ccc2c(c1)N=C(c1ccc(F)cc1)c1ccccc1S2 [drawing 785] |  | 96% | IC50 [3]: 10 nM
24 | CCCC1=Nc2cc(C(=O)NCc3ccc(F)cc3)ccc2Sc2ccccc21 [drawing 787] | 10 nM | 107% | 
25 | CCOCCNC(=O)c1ccc2c(c1)N=C(c1ccc(C#N)cc1)c1ccccc1S2 [drawing 788] | 100 nM | 74% | 
26 | CCCC1=Nc2cc(C(=O)NCc3ccccc3Cl)ccc2Sc2ccccc21 [drawing 791] | 10 nM | 105% | 
27 | O=C(NCc1cccs1)c1ccc2c(c1)N=C(c1ccccc1F)c1ccccc1S2 [drawing 795] | 10 nM | 114% | 
28 | COc1ccc(C2=Nc3cc(C(=O)NNC(=O)c4ccccc4)ccc3Sc3ccccc32)cc1 [drawing 798] |  | 83% | 
29 | Cc1ccc(CNC(=O)c2ccc3c(c2)N=C(c2ccc(Cl)c(Cl)c2)c2ccccc2S3)o1 [drawing 801] | 10 nM | 100% | 
30 | Cc1ccc(CNC(=O)c2ccc3c(c2)N=C(c2ccsc2)c2ccccc2S3)o1 [drawing 803] | 10 nM | 94% | 
31 | Cc1cccc(C2=Nc3cc(C(=O)NCc4ccc(C)o4)ccc3Sc3ccccc32)n1 [drawing 805] | 10 nM | 96% | 
32 | NS(=O)(=O)c1ccc(CNC(=O)c2ccc3c(c2)N=C(c2ccc(F)cc2)c2ccccc2S3)cc1 [drawing 812] |  | 83% | 
33 | CCOC(=O)N1CCC(NC(=O)c2ccc3c(c2)N=C(C2CCCCC2)c2ccccc2S3)CC1 [drawing 814] |  | 95% | 
34 | COCCNC(=O)c1ccc2c(c1)N=C(c1ccc(Cl)s1)c1ccccc1S2 [drawing 819] | 12.6 nM | 103% | 
35 | O=C(NN1CCCCC1)c1ccc2c(c1)N=C(c1ccc(Cl)s1)c1ccccc1S2 [drawing 823] |  | 97% | IC50 [3]: 12.6 nM
36 | O=C(NCCc1cccnc1)c1ccc2c(c1)N=C(c1ccc(Cl)c(Cl)c1)c1ccccc1S2 [drawing 825] | 12.6 nM | 104% | 

The next lines start with results.

Row | IC50 [1] | Emax [2] | SMILES | further results
37 | 7.94 nM | 98% | CCCCNC(=O)c1ccc2c(c1)N=C(c1cccc(Cl)c1)c1ccccc1S2 [drawing 737] | 
38 | 79.4 nM | 96% | O=C(NC1CCCCC1)c1ccc2c(c1)N=C(c1ccc(Cl)cc1)c1ccccc1S2 [drawing 738] | 
39 | 79.4 nM | 109% | O=C(NC1CCCCC1)c1ccc2c(c1)N=C(c1ccccc1F)c1ccccc1S2 [drawing 740] | 
40 | 79.4 nM | 100% | O=C(NC1CCCC1)c1ccc2c(c1)N=C(c1cccc(F)c1)c1ccccc1S2 [drawing 742] | 
41 | 7.94 nM | 108% | O=C(NCc1ccc(F)cc1)c1ccc2c(c1)N=C(c1ccccc1)c1ccccc1S2 [drawing 745] | 
42 | 10 nM | 111% | O=C(NCc1ccccc1)c1ccc2c(c1)N=C(c1ccccc1)c1ccccc1S2 [drawing 755] | 
43 | 10 nM | 96% | O=C(NCc1ccccc1)c1ccc2c(c1)N=C(c1ccc(F)cc1)c1ccccc1S2 [drawing 759] | 
44 | 100 nM | 81% | CC(NC(=O)c1ccc2c(c1)N=C(c1ccc(F)cc1)c1ccccc1S2)c1ccccc1 (stereo not drawn) [drawing 760] | 
45 | 10 nM | 104% | CCCCNC(=O)c1ccc2c(c1)N=C(c1ccccc1)c1ccccc1S2 [drawing 761] | 
46 | 10 nM | 71% | O=C(NC1CCC(F)(F)CC1)c1ccc2c(c1)N=C(c1ccc(Cl)s1)c1ccccc1S2 [drawing 767] | 
47 | 10 nM | 106% | CCCCNC(=O)c1ccc2c(c1)N=C(c1ccc(Cl)c(F)c1)c1ccccc1S2 [drawing 769] | 
48 | 10 nM | 107% | O=C(NCCc1cccc(Cl)c1)c1ccc2c(c1)N=C(c1cccc(Cl)c1)c1ccccc1S2 [drawing 779] | 
49 | 100 nM | 84% | COc1ccc(C2=Nc3cc(C(=O)NC(C)C)ccc3Sc3ccccc32)cc1 [drawing 780] | 
50 | 100 nM | 105% | O=C(NC1CCCC1)c1ccc2c(c1)N=C(c1ccc(Cl)cc1)c1ccccc1S2 [drawing 782] | 
51 | 10 nM | 100% | CC(CNC(=O)c1ccc2c(c1)N=C(C1CCCCC1)c1ccccc1S2)c1ccccc1 (stereo not drawn) [drawing 783] | 
52 | 10 nM | 119% | CCOCCNC(=O)c1ccc2c(c1)N=C(c1cccc(Br)c1)c1ccccc1S2 [drawing 789] | 
53 | 10 nM | 130% | O=C(NCc1cccnc1)c1ccc2c(c1)N=C(c1cccc(F)c1)c1ccccc1S2 [drawing 793] | 
54 | 10 nM | 105% | O=C(NN1CCCCCC1)c1ccc2c(c1)N=C(c1ccc(Cl)s1)c1ccccc1S2 [drawing 797] | 
55 | 10 nM | 103% | CCCNC(=O)c1ccc2c(c1)N=C(c1ccc(Cl)cc1)c1ccccc1S2 [drawing 799] | 
56 |  | 87% | CCONC(=O)c1ccc2c(c1)N=C(c1ccc(Cl)c(Cl)c1)c1ccccc1S2 [drawing 806] | 
57 | 10 nM | 105% | CCCCNC(=O)c1ccc2c(c1)N=C(c1ccc(Br)cn1)c1ccccc1S2 [drawing 807] | 
58 | 10 nM | 82% | Cc1cccc(C2=Nc3cc(C(=O)NCC(C)C)ccc3Sc3ccccc32)n1 [drawing 809] | 
59 | 10 nM | 103% | C[C@@H]1CCC[C@H](C)N1NC(=O)c1ccc2c(c1)N=C(c1ccc(Cl)cc1F)c1ccccc1S2 [drawing 811] | 
60 | 10 nM | 106% | CCCCNC(=O)c1ccc2c(c1)N=C(c1ccc(Cl)cn1)c1ccccc1S2 [drawing 813] | 
61 | 12.6 nM | 93% | Cc1cccc(C2=Nc3cc(C(=O)NCCC(F)(F)F)ccc3Sc3ccccc32)n1 [drawing 815] | 
62 |  | 81% | O=C(NNCC(F)(F)F)c1ccc2c(c1)N=C(c1ccc(Cl)cc1)c1ccccc1S2 [drawing 816] | 
63 | 12.6 nM | 108% | O=C(NN1CCCCC1)c1ccc2c(c1)N=C(c1ccc(F)c(Cl)c1)c1ccccc1S2 [drawing 817] | 
64 | 12.6 nM | 91% | O=C(NC1CCC(F)(F)CC1)c1ccc2c(c1)N=C(c1ccc(F)cc1)c1ccccc1S2 [drawing 821] | 
65 | 12.6 nM | 98% | O=C(NCCC(F)(F)F)c1ccc2c(c1)N=C(c1ccc(F)cc1)c1ccccc1S2 [drawing 827] | 
66 | 12.6 nM | 105% | CCCCNC(=O)c1ccc2c(c1)N=C(c1cccc(Cl)c1)c1cc(F)ccc1S2 [drawing 829] | 
